Read-outs that look alike come from different tables or passages of the source.
Assays:
[1] = tested on: hPDE3B; assay: In vitro assay PDE3 (SPA, 3H-cAMP); type: biochemical, human; parameters: hPDE3B Emax: unit not given here; settings: for hPDE3B pIC50: 0.4 μM cAMP substrate
[2] = target: T1, hPDE2A (Homo sapiens, UniProt O00408); assay: In vitro assay PDE2A (SPA, 3H-cGMP); type: biochemical; settings: for Emax: read-out: hPDE2A Emax
T1 construct: made in house; host or cells: Sf9 insect cells (baculovirus)
Protocol: Human recombinant PDE2A (hPDE2A) was expressed in Sf9 cells using a recombinant rPDE10A baculovirus construct. Cells were harvested after 48 h of infection and the hPDE2A protein was purified by metal chelate chromatography on Ni-sepharose 6FF. Tested compounds were dissolved and diluted in 100% DMSO to a concentration 100 fold of the final concentration in the assay. Compound dilutions (0.4 μl) were added in 384 well plates to 20 μl of incubation buffer (50 mM Tris pH 7.8, 8.3 mM MgCl2, 1.7 mM EGTA). 10 μl of hPDE2A enzyme in incubation buffer was added and the reaction was started by addition of 10 μl substrate to a final concentration of 10 μM cGMP and 0.01 μCi ^3H-cGMP. The reaction was incubated for 45 minutes at room temperature. […] After sedimentation of the beads during 30 minutes the radioactivity was measured in a Perkin Elmer Topcount scintillation counter and results were expressed as cpm. For blanc values the enzyme was omitted from the reaction and replaced by incubation buffer. Control values were obtained by addition of a final concentration of 1% DMSO instead of compound.

[3] = target: T2, PDE2A (Rattus norvegicus, UniProt Q01062); assay: PDE2 occupancy by ex-vivo autoradiography with [3H]B-17a; type: in vivo; settings: for receptor occupancy at 10 mg/kg / ED50: rat; for ED50: read-out: PDE occupancy ED50, route PO (oral), male Wistar rats, dose producing 50% occupancy
T2 construct: from tissue; host or cells: rat brain striatal sections (ex vivo)
T2 sequence (Q01062 1-928): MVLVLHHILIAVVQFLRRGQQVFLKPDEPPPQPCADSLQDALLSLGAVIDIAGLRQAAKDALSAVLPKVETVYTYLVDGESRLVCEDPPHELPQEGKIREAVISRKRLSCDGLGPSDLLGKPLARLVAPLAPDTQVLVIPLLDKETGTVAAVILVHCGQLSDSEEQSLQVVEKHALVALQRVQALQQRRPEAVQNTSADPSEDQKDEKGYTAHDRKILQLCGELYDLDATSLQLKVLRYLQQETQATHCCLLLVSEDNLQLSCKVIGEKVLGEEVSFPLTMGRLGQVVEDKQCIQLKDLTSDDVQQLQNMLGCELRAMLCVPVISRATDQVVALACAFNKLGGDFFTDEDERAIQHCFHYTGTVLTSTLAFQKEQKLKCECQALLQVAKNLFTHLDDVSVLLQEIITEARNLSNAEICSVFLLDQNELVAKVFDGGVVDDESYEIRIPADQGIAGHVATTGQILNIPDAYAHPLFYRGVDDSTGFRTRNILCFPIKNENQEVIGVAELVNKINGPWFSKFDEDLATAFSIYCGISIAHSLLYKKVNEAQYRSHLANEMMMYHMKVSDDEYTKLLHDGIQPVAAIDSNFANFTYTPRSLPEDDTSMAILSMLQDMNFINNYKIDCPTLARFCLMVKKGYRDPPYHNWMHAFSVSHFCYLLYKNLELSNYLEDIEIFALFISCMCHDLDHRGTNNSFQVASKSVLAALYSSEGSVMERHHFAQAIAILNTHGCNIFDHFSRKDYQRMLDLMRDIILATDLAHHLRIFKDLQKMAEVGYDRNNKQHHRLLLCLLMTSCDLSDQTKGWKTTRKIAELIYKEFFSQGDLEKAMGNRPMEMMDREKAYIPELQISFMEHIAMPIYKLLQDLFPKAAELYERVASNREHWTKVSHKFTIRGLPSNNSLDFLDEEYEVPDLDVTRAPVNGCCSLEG
Protocol: PDE2 Occupancy by Test Compounds Methods
Brains were immediately removed from the skull and rapidly frozen in dry-ice cooled 2-methylbutane (−40° C.).
After thawing, sections were dried under a cold stream of air and incubated for one minute with 30 nM [^3H]B-17a in Tris-HCl (50 mM, pH7.4) containing 0.3% BSA. Brain sections from drug-treated and vehicle-treated animals were incubated in parallel. […] After incubation, the excess of [^3H]B-17a was washed off in ice-cold buffer 2 times 10 minutes, followed by a quick dip in distilled water. The sections were then dried under a stream of cold air.
Brain sections were loaded in a β-imager (Biospace, Paris) for 4 h and radioactivity emerging from delineated brain area was quantified using the Beta vision program (Biospace, Paris). Specific binding was determined as the difference between total binding in the striatum and non-specific binding in the cerebellum. Percentage receptor occupancy of the drug administered to the animal corresponded to 100% minus the percentage receptor labeled in the treated animal. For the determination of ED50-values, the percentage of receptor occupancy was plotted against dose and the sigmoidal log dose-effect curve of best fit was calculated by non-linear regression analysis, using the GraphPad Prism program.

[4] = target: hPDE10A2 (Homo sapiens, UniProt Q9Y233); assay: biochemical; settings: for IC50: 60 nM cAMP substrate, read-out: hPDE10A2 pIC50 (converted); for Emax: read-out: hPDE10A2 Emax
Protocol: Rat recombinant PDE10A (rPDE10A2) was expressed in Sf9 cells using a recombinant rPDE10A baculovirus construct. Cells were harvested after 48 h of infection and the rPDE10A protein was purified by metal chelate chromatography on Ni-sepharose 6FF. Tested compounds were dissolved and diluted in 100% DMSO to a concentration 100 fold of the final concentration in the assay. Human recombinant PDE10A […] was expressed in Sf9 cells using a recombinant hPDE10A baculovirus that was made and amplified in house. Cells were harvested after 72 h of infection and the hPDE10A protein was purified by metal chelate chromatography on Ni-sepharose. Compound dilutions (0.4 μl) were added in 384 well plates to 20 μl of incubation buffer (50 mM Tris pH 7.8, 8.3 mM MgCl2, 1.7 mM EGTA). […] of rPDE10A or hPDE10A enzyme in incubation buffer was added and the reaction was started by addition of 10 μl substrate to a final concentration of 60 nM cAMP and 0.008 μCi ^3H-cAMP. The reaction was incubated for 60 minutes at room temperature. […] After sedimentation of the beads during 30 minutes the radioactivity was measured in a Perkin Elmer Topcount scintillation counter and results were expressed as cpm. For blanc values the enzyme was omitted from the reaction and replaced by incubation buffer. Control values were obtained by addition of a final concentration of 1% DMSO instead of compound.

[5] = po, read-out: PDE2 occupancy at 10 mg/kg, route PO (oral), 10 mg/kg, male Wistar rats, striatum, percentage occupancy

T1 sequence (O00408 whole entry): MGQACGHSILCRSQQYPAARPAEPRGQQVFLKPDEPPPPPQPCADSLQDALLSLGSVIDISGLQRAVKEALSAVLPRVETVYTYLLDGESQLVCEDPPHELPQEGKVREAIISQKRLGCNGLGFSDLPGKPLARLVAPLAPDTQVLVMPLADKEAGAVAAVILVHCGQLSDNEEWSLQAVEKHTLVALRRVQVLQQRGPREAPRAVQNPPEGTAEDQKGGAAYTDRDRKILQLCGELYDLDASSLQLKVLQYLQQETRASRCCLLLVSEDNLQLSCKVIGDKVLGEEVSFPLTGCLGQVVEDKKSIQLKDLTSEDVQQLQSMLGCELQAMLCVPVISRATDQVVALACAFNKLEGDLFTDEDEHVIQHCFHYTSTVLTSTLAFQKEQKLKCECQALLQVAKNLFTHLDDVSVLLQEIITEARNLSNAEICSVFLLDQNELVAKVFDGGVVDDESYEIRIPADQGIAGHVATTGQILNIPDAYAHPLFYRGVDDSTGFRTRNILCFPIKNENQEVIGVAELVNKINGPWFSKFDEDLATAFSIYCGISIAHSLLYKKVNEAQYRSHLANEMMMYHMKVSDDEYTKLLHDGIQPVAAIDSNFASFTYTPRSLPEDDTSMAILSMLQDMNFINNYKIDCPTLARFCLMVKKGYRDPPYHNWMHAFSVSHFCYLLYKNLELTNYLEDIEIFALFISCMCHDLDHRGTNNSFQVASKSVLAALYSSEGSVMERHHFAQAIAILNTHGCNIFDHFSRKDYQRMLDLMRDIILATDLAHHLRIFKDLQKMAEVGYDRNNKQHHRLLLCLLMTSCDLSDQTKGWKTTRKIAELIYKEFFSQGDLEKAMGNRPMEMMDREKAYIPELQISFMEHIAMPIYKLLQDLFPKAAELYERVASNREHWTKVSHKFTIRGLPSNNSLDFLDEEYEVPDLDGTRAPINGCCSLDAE
Sequence of hPDE10A2 (Q9Y233 267-1055): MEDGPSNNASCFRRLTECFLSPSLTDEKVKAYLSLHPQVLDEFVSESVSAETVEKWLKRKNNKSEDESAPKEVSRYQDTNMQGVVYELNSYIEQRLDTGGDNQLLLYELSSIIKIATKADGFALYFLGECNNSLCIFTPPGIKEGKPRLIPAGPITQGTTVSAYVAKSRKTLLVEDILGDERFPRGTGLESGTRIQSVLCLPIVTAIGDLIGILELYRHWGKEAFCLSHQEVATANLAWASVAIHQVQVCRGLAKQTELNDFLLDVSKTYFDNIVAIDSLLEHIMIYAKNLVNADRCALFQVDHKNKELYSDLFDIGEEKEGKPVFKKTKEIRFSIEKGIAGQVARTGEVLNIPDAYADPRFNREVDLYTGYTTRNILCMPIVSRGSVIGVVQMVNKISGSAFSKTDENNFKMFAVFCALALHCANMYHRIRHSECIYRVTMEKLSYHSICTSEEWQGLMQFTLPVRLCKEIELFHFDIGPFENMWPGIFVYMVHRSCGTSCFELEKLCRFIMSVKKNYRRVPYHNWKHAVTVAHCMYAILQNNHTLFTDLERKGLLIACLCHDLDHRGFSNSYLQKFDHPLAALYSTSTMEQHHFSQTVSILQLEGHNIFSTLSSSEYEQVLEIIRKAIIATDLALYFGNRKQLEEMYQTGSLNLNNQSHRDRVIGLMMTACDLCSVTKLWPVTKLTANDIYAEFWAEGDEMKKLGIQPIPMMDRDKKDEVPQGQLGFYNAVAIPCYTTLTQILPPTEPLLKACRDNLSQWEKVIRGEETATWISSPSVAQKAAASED

Compound | hPDE3B Emax [1] | hPDE3B pIC50 [1] | IC50 [2] [nM] | Emax [2] [%] | receptor occupancy at 10 mg/kg [3, 5] [%] | ED50 ([3]; po) [mg/kg] | IC50 [4] [nM] | Emax [4] [%] | PDE2 occupancy at 10 mg/kg ([3]; route PO (oral), 10 mg/kg, male Wistar rats, striatum, percentage occupancy) | receptor occupancy at 10 mg/kg ([3]; sc, read-out: PDE2 occupancy at 10 mg/kg, route SC (subcutaneous), 10 mg/kg, male Wistar rats, striatum, percentage occupancy) [%]
Cc1cc([C@@H]2CN(c3nccc4ccc(Br)cc34)CC[C@H]2C)n2ncnc2n1 [Compound 2] | 89 | 5.45 | 1.07 | 100 | 96 | 2.6 | 74.1 | 102 |  | 
Cc1cc([C@@H]2CN(c3nccc4ccc(Cl)cc34)CC[C@H]2C)n2ncnc2n1 [Compound 3] | 88 | 5.49 | 3.02 | 100 | 90 | 2.12 | 83.2 | 100 | 89 | 
FC(F)c1cc([C@H]2CC[C@H]3CC[C@@H]2N3c2c(Br)ccc3ccncc23)n2ncnc2n1 [Compound 5] | 76 | 5.27 | 6.76 | 100 |  |  | 427 | 97 |  | 
C[C@@H]1CCN(c2ncc(Cl)c3ccccc23)C[C@H]1c1cc(C(F)F)nc2ncnn12 [Compound 6] | 67 | 5.21 | 8.91 | 99 | 3 |  | 417 | 101 |  | 
C[C@@H]1CCN(c2nccc3ccccc23)C[C@H]1c1cc(C(F)F)nc2ncnn12 [Compound 7] | 69 | 5.22 | 10.7 | 101 |  | 29 | 617 | 98 |  | 81
COc1cnc(N2CC[C@@H](C)[C@H](c3cc(C(F)F)nc4ncnn34)C2)c2ccccc12 [Compound 8] | 73 | 5.22 | 10.7 | 101 |  |  | 1020 | 97 |  | 
CCCCOc1ccnc(N2CC[C@@H](C)[C@H](c3cc(C(F)F)nc4ncnn34)C2)c1 [Compound 11] | 99 | 6.02 | 13.8 | 99 |  |  | 355 | 97 |  | 
C[C@@H]1CCN(c2nccc3ccc(F)cc23)C[C@H]1c1cc(C(F)F)nc2ncnn12 [Compound 14] | 62 | 5.29 | 17 | 101 |  |  | 389 | 98 |  | 
Cc1cc([C@@H]2CN(c3nccc4ccccc34)CC[C@H]2C)n2ncnc2n1 [Compound 15] | 69 | 5.21 | 17.4 | 100 |  |  | 162 | 98 |  | 
C[C@@H]1CCN(c2ncc(C(F)(F)F)cc2Br)C[C@H]1c1cc(C(F)F)nc2ncnn12 [Compound 19] | 38 | <5 | 30.2 | 100 |  |  | 417 | 96 |  | 
C[C@@H]1CCN(c2cccc(C#N)n2)C[C@H]1c1cc(C(F)F)nc2ncnn12 [Compound 24] | 68 | 5.17 | 79.4 | 100 |  |  | 575 | 94 |  | 
C[C@@H]1CCN(c2ccc(Cl)cn2)C[C@H]1c1cc(C(F)F)nc2ncnn12 [Compound 25] | 45 | <5 | 83.2 | 101 |  |  | 692 | 92 |  | 
C[C@@H]1CCN(c2cccc(C(F)(F)F)n2)C[C@H]1c1cc(C(F)F)nc2ncnn12 [Compound 26] | 80 | 5.43 | 91.2 | 99 |  |  | 457 | 95 |  | 
C[C@@H]1CCN(c2ncccc2Cl)C[C@H]1c1cc(C(F)F)nc2ncnn12 [Compound 28] | 50 | 4.96 | 110 | 99 |  |  | 692 | 90 |  | 
CC(C)Oc1cccnc1N1CC[C@@H](C)[C@H](c2cc(C(F)F)nc3ncnn23)C1.Cl [Compound 31] | 27 | <5 | 257 | 81 |  |  | 1290 | 91 |  | 
COc1ccnc(N2CC[C@@H](C)[C@H](c3cc(C(F)F)nc4ncnn34)C2)c1OC.Cl [Compound 33] | 40 | <5 | 166 | 89 |  |  | 1700 | 82 |  | 
CC(C)Oc1cccnc1N1CC[C@H](C)[C@@H](c2cc(C(F)F)nc3ncnn23)C1.Cl [Compound 34] | 2 | <5 | 2400 | 30 |  |  | > 10000 | 33 |  | 
C[C@@H]1CCN(c2ccc(F)cn2)C[C@H]1c1cc(C(F)F)nc2ncnn12 [Compound 36] | 56 | 5.01 | 245 | 100 |  |  | 1510 | 84 |  | 
C[C@@H]1CCN(c2ccc(C(F)(F)F)cn2)C[C@H]1c1cc(C(F)F)nc2ncnn12 [Compound 38] | 49 | <5 | 170 | 99 |  |  | 759 | 92 |  | 
Cc1cccc(N2CC[C@@H](C)C(c3cc(C(F)F)nc4ncnn34)C2)n1 (some centres unmarked) [Compound 39] | 58 | 5.13 | 145 | 99 |  |  | 1290 | 87 |  | 

Reference: patent US11053248B2, “[1,2,4]triazolo[1,5-a]pyrimidine compounds as PDE2 inhibitors” (Janssen Pharmaceutica NV, priority 2016, dated 2021)
